Laboratory results as given in patent publication US10471050B2, “2-OXO-1,2-dihydropyridine-3,5-dicarboxamide compounds as bromodomain inhibitors” (GlaxoSmithKline Intellectual Property (No. 2) Limited, priority 2015, dated 2019).

Legend:
[1] = molecular target: T1, BRD4 BD2 (Homo sapiens, UniProt O60885, Y97A); assay: BRD4 BD2 TR-FRET competition assay; type: binding; settings: single mutant tandem BRD4, read-out: pIC50 in the BRD4 BD2 assay (converted)
T1 construct: BRD4 (1-477) (Y97A) and (Y390A); made in house; host or cells: E. coli (pET15b vector)
Experimental: Bromodomain binding was assessed utilising a time resolved fluorescent resonance energy transfer (TR-FRET) competition assay. To enable this approach a known, high affinity, pan-BET interacting small molecule was labelled with Alexa Fluor® 647, which is a far-red-fluorescent dye (Reference Compound X). Reference Compound X acts as a reporter of bromodomain binding and is the acceptor fluorophore component of the TR-FRET pair. Europium chelate, conjugated to an anti-6*His antibody, was utilised as the donor fluorophore in the TR-FRET pair. […] A TR-FRET signal is generated when the donor and acceptor fluorophores are in close proximity, between 20-80 Å, which is enabled in this assay by binding of Reference Compound X to the bromodomain protein.
In order to generate a TR-FRET signal, donor fluorophore is excited by a laser at λ337 nm, which subsequently leads to emission at λ618 nm. If the acceptor fluorophore is in close proximity then energy transfer can occur, which leads to emission of Alexa Fluor® 647 at λ665 nm. In the presence of competitor compound, Reference Compound X can be displaced from binding to the bromodomain. If displacement occurs, the acceptor fluorophore is no longer in proximity to the donor fluorophore, which prevents fluorescent energy transfer and, subsequently, a loss of Alexa Fluor® 647 emission at λ665 nm.
(§1) The competition of the compounds of formula (I) with Reference Compound X for binding to the BET family (BRD2, BRD3, BRD4 and BRDT) was assessed using protein truncates spanning both bromodomain 1 (BD1) and bromodomain 2 (BD2). In order to monitor differential binding to either BD1 or BD2, single residue mutations of key tyrosines to alanine were made in the acetyl lysine binding pockets. To validate this approach, a double residue mutant tandem domain protein was produced for each of the BET family members. Utilising a Fluorescence Polarisation approach, binding affinities for each of the single and double mutants for Reference Compound X were determined.
Final purification was completed by Superdex 200 prep grade size exclusion column. Purified protein was stored at −80° C. in 20 mM HEPES pH 7.5 and 100 mM NaCl.
All assay components were dissolved in an assay buffer composing of 50 mM HEPES pH7.4, 50 mM NaCl, 5% Glycerol, 1 mM DTT and 1 mM CHAPS. Reference Compound X was diluted, in assay buffer containing 20 nM single mutant, tandem bromodomain protein, to a concentration equivalent to 2*Kd for this bromodomain. The solution containing bromodomain and Reference Compound X was added to dose response dilutions of test compound or DMSO vehicle (a maximum of 0.5% DMSO is used in this assay) in Greiner 384 well black low volume microtitre plates and subsequently incubated for 30 minutes at room temperature. An equal volume of 3 nM of anti-6*His Europium chelate was added to all wells, followed by a further 30 minute incubation at room temperature. TR-FRET was detected using a Perkin Elmer Multimode plate reader, by exciting the donor fluorophore at λ337 nm and subsequently, after a delay of 50 μsecs, measuring emission of the donor and acceptor fluorophores at λ615 nm and λ665 nm, respectively. In order to control these assays, 16 replicates each of uninhibited (DMSO vehicle) and inhibited (10*IC50 concentrations of Example 11 of WO 2011/054846A1) TR-FRET assays were included on every microtitre plate.
cA four parameter curve fit of the following form was then applied: y=a+((b−a)/(1+(10^x/10^c)^d)
Where ‘a’ is the minimum, ‘b’ is the Hill slope, ‘c’ is the pIC50 and ‘d’ is the maximum.

[2] = system: BRD4 BD2 over BRD4 BD1; assay: Calculation of selectivity for BRD4 BD2 over BRD4 BD1 from the TR-FRET assays; type: binding, Human; settings: 1 log unit = 10 fold, 2 log unit = 100 fold
Experimental: Bromodomain binding was assessed utilising a time resolved fluorescent resonance energy transfer (TR-FRET) competition assay. To enable this approach a known, high affinity, pan-BET interacting small molecule was labelled with Alexa Fluor® 647, which is a far-red-fluorescent dye (Reference Compound X). Reference Compound X acts as a reporter of bromodomain binding and is the acceptor fluorophore component of the TR-FRET pair. Europium chelate, conjugated to an anti-6*His antibody, was utilised as the donor fluorophore in the TR-FRET pair. The anti-6*His antibody binds selectively to a six Histidine purification epitope added to the amino-terminus of each of the BET tandem bromodomain protein constructs used in this study. […]
The competition of the compounds of formula (I) with Reference Compound X for binding to the BET family (BRD2, BRD3, BRD4 and BRDT) was assessed using protein truncates spanning both bromodomain 1 (BD1) and bromodomain 2 (BD2). […] Utilising a Fluorescence Polarisation approach, binding affinities for each of the single and double mutants for Reference Compound X were determined. […] In the TR-FRET competition assay, Reference Compound X is used at a concentration that is equivalent to the Kd for the non-mutated bromodomain, which ensures that no binding at the mutated bromodomain is detected. […]

[3] = system: BET family (BRD2, BRD3, BRD4 and BRDT) tandem bromodomain proteins, Tyr to Ala mutants; assay: Fluorescence Polarisation binding of Reference Compound X to single and double mutant tandem BET proteins; set-up: species or system Human
Experimental: as §1, with “determined. […] The affinities of the single mutated bromdomain tandem proteins for Reference Compound X were equi-potent with the corresponding non-mutated BET protein. […] In the TR-FRET competition assay, Reference Compound X is used at a concentration that is equivalent to the Kd for the non-mutated bromodomain, which ensures that no binding at the mutated bromodomain is detected.” for “determined.”
Protein production: Recombinant Human Bromodomains [(BRD2 (1-473) (Y113A) and (Y386A), BRD3 (1-435) (Y73A) and (Y348A) BRD4 (1-477) (Y97A) and (Y390A) and BRDT (1-397) (Y66A) and (Y309A)] were expressed in E. coli cells (in pET15b vector for BRD2/3/4 and in pET28a vector for BRDT) with a 6-His tag at the N-terminal. The His-tagged Bromodomain pellet was resuspended in 50 mM HEPES (pH7.5), 300 mM NaCl, 10 mM imidazole & 1 μl/ml protease inhibitor cocktail and extracted from the E. coli cells using sonication and purified using a nickel sepharose high performance column, the proteins were washed and then eluted with a linear gradient of 0-500 mM imidazole with buffer 50 mM HEPES (pH7.5), 150 mM NaCl, 500 mM imidazole, over 20 column volumes. Final purification was completed by Superdex 200 prep grade size exclusion column. Purified protein was stored at −80° C. in 20 mM HEPES pH 7.5 and 100 mM NaCl. Protein identity was confirmed by peptide mass fingerprinting and predicted molecular weight confirmed by mass spectrometry.

| Compound | IC50 [1] | selectivity for BRD4 BD2 over BRD4 BD1 (BRD4 BD2 pIC50 - BRD4 BD1 pIC50) [2] | reduction in Kd, double mutant tandem proteins versus non mutated wild type tandem BET proteins ([3]; double residue Tyr to Ala mutant tandem protein of each BET family member) | affinity of single mutated bromodomain tandem proteins versus corresponding non-mutated BET protein ([3]; single Tyr to Ala mutants) | reduction of Kd of the interaction between the mutated bromodomain and Reference Compound X ([3]; single mutation of Tyrosine to Alanine) |
| --- | --- | --- | --- | --- | --- |
| CNC(=O)c1cc(C(=O)NCCCC(=O)O)cn(Cc2ccccc2)c1=O [Example 44, 4-(1-Benzyl-5-(methylcarbamoyl)-6-oxo-1,6-dihydropyridine-3-carboxamido)butanoic acid] | 0.1 to 1 µM | < 1 log unit | – | – | – |
| COc1ccc2c(c1)C(c1ccc(Cl)cc1)=N[C@@H](CC(=O)NCCCCCNC(=O)CCCCCC1(C)/C(=C/C=C/C=C/C3=[N+](CCCCS(=O)(=O)O)c4ccc(S(=O)(=O)O)cc4C3(C)C)N(CCCCS(=O)(=O)[O-])c3ccc(S(=O)(=O)O)cc31)c1nnc(C)n1-2 (some centres unmarked) [Reference Compound X] | – | – | > 1000 fold | equi-potent | > 1000 fold |
